Test results reported in patent US8198085B2, “Somatic cells for use in cell therapy” (Core Dynamics Limited, priority 2005, dated 2012).
“And” between values parts separate entries of the source, which are not always exact repeats. Equal values may be shown once.

Experiments:
[1] = test system: mononuclear cells (MNC) derived from umbilical cord blood (UCB); assay: Membrane integrity (SYBR14/PI live/dead stain) of UCB derived MNC after freeze thawing or freeze drying; assay type: cell-based, human; details: for Membrane integrity (%): 0.1M trehalose in PBS
Experimental: In the following experiments umbilical cord blood (UCB) was received from “Sheba” Medical Center. The blood was separated on ficoll-paque gradient. 3 ml of Histopaque 1077 was put in a 15 ml plastic test tube. Above it 3 ml of UCB was put and the samples were centrifuged for 30 minutes at 1000 g. After spinning was finished the mononuclear layer was taken out and PBS was added up to 10 ml total volume. The samples were centrifuged again for 10 minutes at 200 g or 250 g., after which, the supernatant was discarded and another step of washing was performed (again, 10 ml PBS was added and samples were centrifuged for 10 minutes at 250 g). At the end of this step a freezing solution (as detailed in each experiment) was added to the cells pellet. The volume of the freezing solution varied depending on the desired cell concentration (concentrations may range for example from 1 to 10×10^6 cells/ml) or volume. Unless otherwise mentioned, a 2.5 ml cell suspension was transferred into a 16 mm glass tube that was then frozen using a multi-gradient directional freezing system (MTG-516 by IMT, Israel), operated essentially as described in WO03/020874.
Unless otherwise stated, the directional freezing system temperatures were set to: 5° C. to −10° C. to −40° C. to −70° C. Seeding was performed before the samples entered the −10° C. temperature. The velocity at which the samples were pushed through the channels of the freezing machine was set to 0.2 mm/sec, resulting in a cooling rate of 5.1° C./min. During freezing the samples were rotated at 60 rounds per minute (RPM). After completion of the freezing process, samples were put in a liquid-nitrogen (LN) tank until they were either thawed or transferred into a lyophilizer.
Lyophilization was performed by taking samples out of the LN tank and putting them in a commercial lyophilizer near the condenser (Labconco, USA), at condenser temperature of −80° C. Samples were held in the lyophilizer for 3 days. After 3 days of lyophilization samples were taken out and rehydrated with 2.4 ml of double distilled water (DDW) at 37° C.
Viability was assessed using the live/dead fluorescent stain SYBR14/PI (Propidium Iodide) or SYTO/PI (both from Molecular Probes, USA) for membrane integrity. These stains are nucleic acid stains, SYBR14 and SYTO are membrane permeable molecules and PI can enter the cell only if the membrane is damaged. Where so specified, the assay used was trypan blue (TB).

[2] = test system: UCB derived MNC (mature lymphocytes, CD3); assay: CD3 expression by FACS after lyophilization and re-hydration; assay type: cell-based, human; details: 0.1M trehalose
Experimental: Sample's volume was 2.5 ml and samples were frozen and then lyophilized as described above. After being in the lyophilizer for 72 h, the samples were taken out and re-hydrated with 2.4 ml of DDW at 37° C. After re-hydration samples were assayed for CD3 using FACS (fluorescent-activated cell sorter) in accordance with the method described in Hulling et al. The Journal of Immunology 2003, 171: 4824-4829.

UCB derived MNC = assay: Cell proliferation assay based on thymidine incorporation; set-up: species or system human; details: cells lyophilized at ×10 EGCG (1.89 mg/ml) compared with ×2.5 EGCG (0.47 mg/ml); 48 hour incubation; FIG. 3
Experimental: Sample's volume was 2.5 ml and samples were frozen and then lyophilized as described above. After being in the lyophilizer for 72 h, the samples were taken out and re-hydrated with 2.4 ml of DDW at 37° C. After re-hydration samples were assayed for CD3 using FACS (fluorescent-activated cell sorter) in accordance with the method described in Hulling et al. The Journal of Immunology 2003, 171: 4824-4829. In addition, a cell proliferation assay was performed. In brief, the hydrated cells were incubated for 48 hour after which a proliferation assay based on thymidine incorporation was carried out (Promega, USA). The results of the proliferation assay are depicted in FIG. 3, wherein the proliferation index of the cells is depicted as a function of their number at initial plating.

macrophages = assay: Membrane integrity (SYBR14/PI) of macrophage units after freeze thawing and freeze drying; assay type: cell-based; details: for cell survival (membrane integrity): freeze-dried, 0.5M Trehalose
Text: Macrophage units were supplied by Professor Danon, Israel blood services, Tel-Hashomer, Israel. In the following experiments all buffy coats and/or macrophage units referred to were manipulated using the method and system for cultivating macrophages described in U.S. Pat. No. 6,146,890 which is incorporated herein by reference in its entirety, whereby hypo-osmotic shock is used to enhance the cells' differentiation into macrophages. Such manipulated cells were reported not to maintain viability after a conventional freezing process therefore their shelf life is very short, limiting their applications.
A part of the buffy coat was separated in order to produce mononuclear cells which include the monocyte/macrophage layer. The blood was separated on a Ficoll-Paque gradient for 30 minutes at 1000 g, afterwards the mononuclear layer was drawn out and washed twice in Phosphate Buffered Saline (PBS) (Calcium and Magnesium free, Bet Haemek, Israel) for 10 minutes at 200 g. The pellet was then resuspended with 3 ml of culture medium (RPMI 1640 with glutamine, 10% fetal calf serum and 1% antibiotic, all supplied by Bet Haemek, Israel). The rest of the buffy coat was left untouched.
Whole buffy coat or mononuclear cells in culture medium were incubated for one hour with different concentrations of Trehalose (0.1, 0.3, 0.5 and 1M). Incubation was done at 37° C., 5% CO2 humidified incubator.
Buffy coat samples and MNC samples were frozen by using the MTG-516 freezing apparatus (IMT, Israel) at a cooling rate of 5.1° C./min. Samples were rotated during freezing at 56 rounds per minute. After freezing, all samples were plunged into liquid nitrogen. Thawing was done at 37° C. in a water bath. Lyophilization was done by putting the frozen samples in a commercial lyophilizer (Labconco, USA) with a condenser temperature of −80° C. After drying, the cells were rehydrated with ultra pure water at 37° C. in order to regain their original volume (2.5 ml). […]

| SMILES | membrane integrity ([1]; 0.1M trehalose with 0.945 or 1.89 mg/ml EGCG, lyophilized and rehydrated, FIG. 2B) | viability (EGCG dose response) ([1]; 0.4M Trehalose, 0.189, 0.47, 0.945 and 1.89 mg/ml EGCG, after freezing and thawing and after freeze drying and re-hydration (exception 0.945 mg/ml after freeze-drying)) | Membrane integrity (%) ([1]; Fresh with 0.47 mg/ml EGCG) | Membrane integrity (%) ([1]; Lyophilized with 0.47 mg/ml EGCG, re-hydrated) | percentage of cells that presented an intact membrane ([1]; after freeze drying with 1.89 mg/ml EGCG, 0.4M Trehalose in PBS, FIG. 2A) | CD3 (%) ([2]; Lyophilized with 0.47 mg/ml EGCG) | CD3 (%) ([2]; Lyophilized with 1.89 mg/ml EGCG) | proliferation index (UCB derived MNC) | cell survival (membrane integrity) (macrophages; second experiment, FIG. 6C) | cell survival (membrane integrity) (macrophages; without Ficoll-Paque separation, FIG. 6B) | membrane integrity (macrophages; frozen-thawed with 0.5M trehalose, whole macrophage units, FIG. 6C) |
| --- | --- | --- | --- | --- | --- | --- | --- | --- | --- | --- | --- |
| O=C(O[C@@H]1Cc2c(O)cc(O)cc2O[C@@H]1c1cc(O)c(O)c(O)c1)c1cc(O)c(O)c(O)c1 [EGCG, Epigallocatechin gallate] | very high | increased with increasing EGCG concentration | 97.36 ± 2.2% | 55.1 ± 8.5% and 59.8 ± 1.4% | about 90% | 80% | 81% and 83% and 82% and 78% | higher proliferation index | – | – | – |
| OC[C@H]1O[C@H](O[C@H]2O[C@H](CO)[C@@H](O)[C@H](O)[C@H]2O)[C@H](O)[C@@H](O)[C@@H]1O [trehalose, Trehalose] | – | – | – | – | – | – | – | – | 55.35±2.9% | 91.86±4.2% | 72.03±2.8% |
